We go through three compounds from patent US9949964B2, “Tesofensine compositions” (Saniona A/S, priority 2016, dated 2018).

A short description of data set [1]: Drug excipient compatibility study, chemical stability of binary mixtures of tesofensine and excipients. It counts as physicochemical. An excerpt:
A compatibility study investigating the chemical stability of binary mixtures of tesofensine and pharmaceutically acceptable excipients has been conducted.

Data set [2] in a line: Solubility of the active ingredient in granulating liquid. It counts as physicochemical. Conditions: ethanol/mixtures compared to pure water or ethanol. The source says: Microcrystalline cellulose also was compatible with the active ingredient. Hydroxypropylcellulose was selected as binder due to its compatibility with the active ingredient. The amount of binder was adequate to provide sufficient resistance to crushing and plasticity of the granules. Crosscarmelllose sodium was selected as disintegrant as it is an effective disintegrant and is compatible with the active ingredient. The amount of croscarmellose sodium was sufficient to provide the desired disintegration. The amount of magnesium stearate selected was sufficient to avoid sticking to tableting tooling during compression. Ethanol was selected as co-solvent in the granulating liquid as ethanol evaporates easily for improved drying properties of the granulate.

Data set [3] is described as follows: Dissolution tests / dissolution profile. It counts as physicochemical. The protocol:
The active ingredient dissolves from the coated tablets within 30 minutes. FIGS. 1, 2 and 3 show dissolution profiles for tesofensine compositions B and C with a dose strength of 0.25 mg, 0.5 mg and 1.0 mg.

For data set [4] the following is noted: cited from earlier work.

As to `O.OC[C@H]1O[C@@H](O[C@H]2[C@H](O)[C@@H](O)C(O)O[C@@H]2CO)[C@H](O)[C@@H](O)[C@H]1O` (stereo partly drawn) [lactose, lactose monohydrate], in data set [1], the “Compatibility of excipient with tesofensine” value is “compatible”.

For the compound `CCOC[C@H]1C2CCC(C[C@@H]1c1ccc(Cl)c(Cl)c1)N2C` (stereo partly drawn) [tesofensine, (3S,4R)-3-(3,4-dichlorophenyl)-4-(ethoxymethyl)-8-methyl-8-azabicyclo[3.2.1]octane], the “Solubility of the active ingredient” value in data set [2] is recorded as “increased”. For the same compound, the Solubility entry in data set [3] is given as “readily soluble”. Besides, the in-vivo half-life entry in data set [4] was “in the range of days”.

With magnesium stearate, in data set [1], the “Compatibility of excipient with tesofensine” value is recorded as “Incompatibility” and the “Decomposition of tesofensine with excipient” value is reported as “the extent of decomposition was low”.
